From patent US11725007B2, “Meta tyrosine derivatives as rho-kinase inhibitors” (Chiesi Farmaceutici S.p.A., priority 2017, dated 2023)
pKi: −log10 of the molar value.

Columns and labels:
[1] = molecular target: Rho kinase 1 (ROCK1) (Homo sapiens, UniProt Q13464); experiment: In vitro Rho kinase inhibitory activity assay (ADP-Glo), ROCK1; type: biochemical; details: 10 μM ATP, Myelin Basic Protein substrate, 25° C., Ki by Cheng-Prusoff
Description: (§1) The effectiveness of compounds of the invention to inhibit Rho kinase activity can be determined in a 10 μl assay containing 40 mM Tris pH7.5, 20 mM MgCl2 0.1 mg/ml BSA, 50 μM DTT and 2.5 μM peptide substrate (Myelin Basic Protein) using an ADP-Glo kit (Promega). Compounds were dissolved in DMSO such that the final concentration of DMSO was 1% in the assay. All reactions/incubations are performed at 25° C. Compound (2 ul) and either Rho kinase 1 or 2 (4 μl) were mixed and incubated for 30 mins. Reactions were initiated by addition of ATP (4 μl) such that the final concentration of ATP in the assay was 10 μM. After a 1 hour incubation 10 μl of ADP-Glo Reagent was added and after a further 45 minute incubation 20 ul of Kinase Detection Buffer was added and the mixture incubated for a further 30 minutes. The luminescent signal was measured on a luminometer. […] Compounds were tested in dose-response format and the inhibition of kinase activity was calculated at each concentration of compound. To determine the IC50 (concentration of compound required to inhibit 50% of the enzyme activity) data were fit to a plot of % inhibition vs Log10 compound concentration using a sigmoidal fit with a variable slope and fixing the maximum to 100% and the minimum to 0%. To determine the Ki values the Cheng-Prusoff equation was utilized (Ki=IC50/(1+[S]/Km)

[2] = molecular target: Rho kinase 2 (ROCK2) (Homo sapiens, UniProt O75116); experiment: In vitro Rho kinase inhibitory activity assay (ADP-Glo), ROCK2; type: biochemical; details: 10 μM ATP, Myelin Basic Protein substrate, 25° C., Ki by Cheng-Prusoff
Description: as §1

Sequence of Rho kinase 1 (ROCK1) (Q13464 whole entry): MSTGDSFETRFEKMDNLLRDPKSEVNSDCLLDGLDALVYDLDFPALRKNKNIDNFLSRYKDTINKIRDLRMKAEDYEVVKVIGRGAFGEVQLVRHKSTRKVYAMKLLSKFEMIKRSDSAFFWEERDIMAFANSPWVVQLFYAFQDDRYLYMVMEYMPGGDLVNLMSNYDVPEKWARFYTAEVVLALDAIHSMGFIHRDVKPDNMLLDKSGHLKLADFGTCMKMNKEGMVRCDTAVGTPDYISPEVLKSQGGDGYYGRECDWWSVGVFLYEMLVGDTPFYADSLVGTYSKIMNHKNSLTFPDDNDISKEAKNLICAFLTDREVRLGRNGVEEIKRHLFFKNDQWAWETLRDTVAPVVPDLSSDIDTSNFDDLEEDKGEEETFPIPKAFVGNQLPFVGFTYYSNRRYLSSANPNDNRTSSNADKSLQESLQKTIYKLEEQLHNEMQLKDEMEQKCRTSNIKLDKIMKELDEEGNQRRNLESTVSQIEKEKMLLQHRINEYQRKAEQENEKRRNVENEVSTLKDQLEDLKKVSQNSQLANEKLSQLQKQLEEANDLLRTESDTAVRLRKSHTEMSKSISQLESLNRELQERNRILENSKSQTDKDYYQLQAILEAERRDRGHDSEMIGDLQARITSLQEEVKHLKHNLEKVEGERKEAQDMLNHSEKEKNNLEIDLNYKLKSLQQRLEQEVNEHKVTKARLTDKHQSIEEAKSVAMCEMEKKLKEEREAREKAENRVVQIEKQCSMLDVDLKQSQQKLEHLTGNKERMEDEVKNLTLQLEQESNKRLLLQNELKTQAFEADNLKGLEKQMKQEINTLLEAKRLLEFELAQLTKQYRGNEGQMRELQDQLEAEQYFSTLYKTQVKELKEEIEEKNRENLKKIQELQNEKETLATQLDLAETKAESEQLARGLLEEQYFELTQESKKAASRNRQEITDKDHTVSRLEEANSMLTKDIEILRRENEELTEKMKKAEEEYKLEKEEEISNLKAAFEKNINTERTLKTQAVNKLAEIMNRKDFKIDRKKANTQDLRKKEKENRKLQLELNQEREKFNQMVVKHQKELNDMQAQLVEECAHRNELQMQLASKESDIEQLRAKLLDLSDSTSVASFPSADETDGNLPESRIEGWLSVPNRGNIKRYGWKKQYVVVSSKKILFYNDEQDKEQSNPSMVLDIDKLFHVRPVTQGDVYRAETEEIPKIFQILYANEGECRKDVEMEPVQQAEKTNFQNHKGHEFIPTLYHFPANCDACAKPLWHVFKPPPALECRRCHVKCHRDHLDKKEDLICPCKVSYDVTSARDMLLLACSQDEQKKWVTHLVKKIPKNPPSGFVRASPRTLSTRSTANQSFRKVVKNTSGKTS
Sequence of Rho kinase 2 (ROCK2) (O75116 whole entry): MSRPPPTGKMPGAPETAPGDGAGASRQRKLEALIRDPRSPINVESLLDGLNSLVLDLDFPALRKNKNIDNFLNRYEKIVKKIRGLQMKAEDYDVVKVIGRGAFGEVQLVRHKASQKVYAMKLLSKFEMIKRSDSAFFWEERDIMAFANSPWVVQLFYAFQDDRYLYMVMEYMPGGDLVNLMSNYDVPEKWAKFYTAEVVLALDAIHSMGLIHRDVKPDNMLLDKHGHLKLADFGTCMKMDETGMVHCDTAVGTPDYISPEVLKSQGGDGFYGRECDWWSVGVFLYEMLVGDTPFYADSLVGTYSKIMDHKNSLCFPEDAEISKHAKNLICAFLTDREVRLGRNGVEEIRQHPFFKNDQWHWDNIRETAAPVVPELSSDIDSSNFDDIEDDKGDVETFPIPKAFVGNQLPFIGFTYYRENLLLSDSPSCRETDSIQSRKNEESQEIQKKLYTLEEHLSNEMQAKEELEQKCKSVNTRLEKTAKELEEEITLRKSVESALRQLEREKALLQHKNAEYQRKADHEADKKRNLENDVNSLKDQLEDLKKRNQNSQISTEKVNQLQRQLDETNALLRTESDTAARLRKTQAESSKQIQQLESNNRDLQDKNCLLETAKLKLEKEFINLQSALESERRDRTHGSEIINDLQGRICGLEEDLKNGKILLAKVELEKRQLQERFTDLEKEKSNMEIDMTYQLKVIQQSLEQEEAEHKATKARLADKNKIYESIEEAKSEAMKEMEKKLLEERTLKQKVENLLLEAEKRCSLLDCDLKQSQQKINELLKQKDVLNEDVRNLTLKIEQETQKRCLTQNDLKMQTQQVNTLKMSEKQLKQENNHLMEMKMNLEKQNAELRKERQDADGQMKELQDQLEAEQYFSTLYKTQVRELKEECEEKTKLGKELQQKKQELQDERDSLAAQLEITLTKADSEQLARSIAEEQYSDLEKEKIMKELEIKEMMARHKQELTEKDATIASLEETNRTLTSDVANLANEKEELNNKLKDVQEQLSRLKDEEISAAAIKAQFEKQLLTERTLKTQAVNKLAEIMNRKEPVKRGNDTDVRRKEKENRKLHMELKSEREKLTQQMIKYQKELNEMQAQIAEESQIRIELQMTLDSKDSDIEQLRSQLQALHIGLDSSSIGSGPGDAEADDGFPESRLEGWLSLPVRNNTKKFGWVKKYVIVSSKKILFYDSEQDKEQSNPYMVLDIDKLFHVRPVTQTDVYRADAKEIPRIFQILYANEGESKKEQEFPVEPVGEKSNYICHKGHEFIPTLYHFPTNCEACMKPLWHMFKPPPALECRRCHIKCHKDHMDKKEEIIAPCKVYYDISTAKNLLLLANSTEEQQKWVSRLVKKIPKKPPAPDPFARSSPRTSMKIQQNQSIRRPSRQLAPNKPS

Structure (SMILES)	pKi [1]	pKi [2]
Cc1c[nH]c2nccc(Oc3cccc(CC(N)C(=O)N4CCN(C)CC4)c3)c12 (centres unmarked) [Example 1, 2-Amino-3-(3-((3-methyl-1H-pyrrolo[2,3-b]pyridin-4-yl)oxy)phenyl)-1-(4-methylpiperazin-1-yl)propan-1-one]	7.30 to 8.30	7.30 to 8.30
Cc1c[nH]c2nccc(Oc3cccc(C(N)CC(=O)N4CCN(C)CC4)c3)c12 (centres unmarked) [Example 5, 3-amino-3-(3-((3-methyl-1H-pyrrolo[2,3-b]pyridin-4-yl)oxy)phenyl)-1-(4-methylpiperazin-1-yl)propan-1-one]	7.30 to 8.30	7.30 to 8.30
Cc1c[nH]c2nccc(Oc3cccc(C(CN)CC(=O)NCCc4ccncc4)c3)c12 (centres unmarked) [Example 13, 4-Amino-3-(3-((3-methyl-1H-pyrrolo[2,3-b]pyridin-4-yl)oxy)phenyl)-N-(2-(pyridin-4-yl)ethyl)butanamide]	7.30 to 8.30	7.30 to 8.30
Cc1c[nH]c2nccc(Oc3cccc(CC(CN)C(=O)N4CCN(C)CC4)c3)c12 (centres unmarked) [Example 9, 3-amino-2-(3-((3-methyl-1H-pyrrolo[2,3-b]pyridin-4-yl)oxy)benzyl)-1-(4-methylpiperazin-1-yl)propan-1-one]	< 7.30	< 7.30
Cc1c[nH]c2nccc(Oc3cccc(C(CN)CC(=O)N4CCN(C)CC4)c3)c12 (centres unmarked) [Example 16, 4-amino-3-(3-((3-methyl-1H-pyrrolo[2,3-b]pyridin-4-yl)oxy)phenyl)-1-(4-methylpiperazin-1-yl)butan-1-one]	7.30 to 8.30	7.30 to 8.30
Cc1c[nH]c2nccc(Oc3cccc(CC(N)C(=O)NCCc4ccncc4)c3)c12 (centres unmarked) [Example 4, 2-amino-3-(3-((3-methyl-1H-pyrrolo[2,3-b]pyridin-4-yl)oxy)phenyl)-N-(2-(pyridin-4-yl)ethyl)propanamide]	> 8.30	> 8.30
Cc1c[nH]c2nccc(Oc3cccc(CC(CN)C(=O)NCCc4ccncc4)c3)c12 (centres unmarked) [Example 11, 3-amino-2-(3-((3-methyl-1H-pyrrolo[2,3-b]pyridin-4-yl)oxy)benzyl)-N-(2-(pyridin-4-yl)ethyl)propanamide]	7.30 to 8.30	7.30 to 8.30

Now from value to compound:

pKi [1]	pKi [2]	Structure (SMILES)
7.30 to 8.30	7.30 to 8.30	COCCCNC(=O)C(CN)Cc1cccc(Oc2ccnc3[nH]cc(C)c23)c1 (centres unmarked) [Example 10, 3-amino-N-(3-methoxypropyl)-2-(3-((3-methyl-1H-pyrrolo[2,3-b]pyridin-4-yl)oxy)benzyl)propanamide]
7.30 to 8.30	7.30 to 8.30	Cc1c[nH]c2nccc(Oc3cccc(C(N)CC(=O)NCCc4ccncc4)c3)c12 (centres unmarked) [Example 7, 3-amino-3-(3-((3-methyl-1H-pyrrolo[2,3-b]pyridin-4-yl)oxy)phenyl)-N-(2-(pyridin-4-yl)ethyl)propanamide]
< 7.30	< 7.30	Cc1c[nH]c2nccc(Oc3cccc(C(N)CC(=O)NCCCN(C)C)c3)c12 (centres unmarked) [Example 8, 3-amino-N-(3-(dimethylamino)propyl)-3-(3-((3-methyl-1H-pyrrolo[2,3-b]pyridin-4-yl)oxy)phenyl)propanamide]
< 7.30	< 7.30	Cc1c[nH]c2nccc(Oc3cccc(CC(CN)C(=O)NCCCN(C)C)c3)c12 (centres unmarked) [Example 12, 3-amino-N-(3-(dimethylamino)propyl)-2-(3-((3-methyl-1H-pyrrolo[2,3-b]pyridin-4-yl)oxy)benzyl)propanamide]
7.30 to 8.30	7.30 to 8.30	COCCCNC(=O)CC(CN)c1cccc(Oc2ccnc3[nH]cc(C)c23)c1 (centres unmarked) [Example 14, 4-amino-N-(3-methoxypropyl)-3-(3-((3-methyl-1H-pyrrolo[2,3-b]pyridin-4-yl)oxy)phenyl)butanamide]
< 7.30	< 7.30	Cc1c[nH]c2nccc(Oc3cccc(C(CN)CC(=O)NCCCN(C)C)c3)c12 (centres unmarked) [Example 15, 4-amino-N-(3-(dimethylamino)propyl)-3-(3-((3-methyl-1H-pyrrolo[2,3-b]pyridin-4-yl)oxy)phenyl)butanamide]
< 7.30	< 7.30	Cc1c[nH]c2nccc(Oc3cccc(CC(N)C(=O)NCCCN(C)C)c3)c12 (centres unmarked) [Example 3, 2-amino-N-(3-(dimethylamino)propyl)-3-(3-((3-methyl-1H-pyrrolo[2,3-b]pyridin-4-yl)oxy)phenyl)propanamide]
7.30 to 8.30	7.30 to 8.30	COCCCNC(=O)CC(N)c1cccc(Oc2ccnc3[nH]cc(C)c23)c1 (centres unmarked) [Example 6, 3-amino-N-(3-methoxypropyl)-3-(3-((3-methyl-1H-pyrrolo[2,3-b]pyridin-4-yl)oxy)phenyl)propanamide]
7.30 to 8.30	7.30 to 8.30	COCCCNC(=O)C(N)Cc1cccc(Oc2ccnc3[nH]cc(C)c23)c1 (centres unmarked) [Example 2, 2-amino-N-(3-methoxypropyl)-3-(3-((3-methyl-1H-pyrrolo[2,3-b]pyridin-4-yl)oxy)phenyl)propanamide]
